Assay: Rheological properties (stress controlled AR2000ex rheometer, flow curve and strain sweep)
Assay type: physicochemical
Text: The three commercial mouthwashes are a simple fluoride-rinse type mouthwash (comparative formulation 1), a polymer based high fluoride mouthwash (comparative formulation 2), and a mouthwash having a conventional polymer system different from that described in this case (mouthwash 3). The rheological properties of the formulations are quantified using a stress controlled AR2000ex rheometer (TA Instruments) and a cuette type geometry. A flow curve is generated and fit to a power law model to quantify the flow rate index, n. A strain sweep is conducted to quantify the elastic modulus, G′ and the loss modulus, G″.

[1] = flow curve fit to a power law model
[2] = strain sweep, cuette type geometry

## O [Newtonian Fluid Example, Water]
[1]
  k: 1.1 cps
  n (flow rate index): 1.0
Ratio of elastic to viscous components
  G′/G″: 0.09
[2]
  G′ (elastic modulus): 0.02 dyn/cm2
  G″ (loss modulus): 0.23 dyn/cm2

— patent US10722446B2, “Aqueous oral care compositions” (Colgate-Palmolive Company, priority 2011, dated 2020)
